Assay results as given in US9629365B2, “Macrocyclic picolinamides compounds with fungicidal activity” (DOW AGROSCIENCES LLC, priority 2013, dated 2017).
Where two headings read alike, the source gives them in different places.

Assays:
Alternaria solani = experiment: Tomato Early Blight (ALTESO) fungicidal activity; type: in vivo; conditions: 24 h, 1 Day Protectant, tomato plants, read-out: ALTESO Disease Control 1DP
Erysiphe cichoracearum = experiment: Powdery Mildew of Cucumber (ERYSCI) fungicidal activity; type: in vivo; conditions: Golovinomyces cichoracearum, topical, 24 h, 1 Day Protectant, cucumber seedlings, read-out: ERYSCI Disease Control 1DP
Venturia inaequalis = experiment: Apple Scab (VENTIN) fungicidal activity; type: in vivo; conditions: 24 h, 1 Day Protectant, read-out: VENTIN 1DP Disease Control at 100 ppm
[1] = system: Glomerella lagenarium; Anamorph: Colletotrichum lagenarium; experiment: Cucumber Anthracnose (COLLLA) fungicidal activity; type: in vivo; conditions: Colletotrichum orbiculare, 24 h, 1 Day Protectant, cucumber seedlings, read-out: COLLLA Disease Control 1DP
Puccinia triticina = experiment: Wheat Brown Rust (PUCCRT) fungicidal activity; type: in vivo; conditions: for pest or weed control at 100 ppm: rate 100 ppm (high volume application); for pest or weed control at 121.5 g/ha: rate 121.5 g/H (low volume application)
Protocol: (§1) Technical grades of materials were dissolved in acetone, which were then mixed with nine volumes of water containing 110 ppm Triton X-100. The fungicide solutions were applied onto wheat seedlings using an automated booth sprayer to run-off. All sprayed plants were allowed to air dry prior to further handling. All fungicides were evaluated using the aforementioned method for their activity vs. all target diseases. Wheat leaf blotch and brown rust activity were also evaluated using track spray applications, in which case the fungicides were formulated as EC formulations, containing 0.1% Trycol 5941 in the spray solutions. Wheat plants (variety Yuma) were grown from seed in a greenhouse in 50% mineral soil/50% soil-less Metro mix until the first leaf was fully emerged, with 7-10 seedlings per pot. These plants were inoculated with an aqueous spore suspension of Septoria tritici either prior to or after fungicide treatments. After inoculation the plants were kept in 100% relative humidity (one day in a dark dew chamber followed by two to three days in a lighted dew chamber at 20° C.) to permit spores to germinate and infect the leaf. The plants were then transferred to a greenhouse set at 20° C. for disease to develop. When disease symptoms were fully expressed on the 1st leaves of untreated plants, infection levels were assessed on a scale of 0 to 100 percent disease severity. Percent disease control was calculated using the ratio of disease severity on treated plants relative to untreated plants. Wheat plants (variety Yuma) were grown from seed in a greenhouse in 50% mineral soil/50% soil-less Metro mix until the first leaf was fully emerged, with 7-10 seedlings per pot. These plants were inoculated with an aqueous spore suspension of Puccinia triticina either prior to or after fungicide treatments. After inoculation the plants were kept in a dark dew room at 22° C. with 100% relative humidity overnight to permit spores to germinate and infect the leaf. The plants were then transferred to a greenhouse set at 24° C. for disease to develop. Fungicide formulation, application and disease assessment followed the procedures as described in the Example A.

[2] = system: Blumeria graminis f. Sp. Hordei; experiment: Barley Powdery Mildew (ERYSGH) fungicidal activity; type: in vivo; conditions: 24 h, 1 Day Protectant, barley seedlings, read-out: ERYSGH Disease Control 1DP
Rhyncosporium secalis = experiment: Barley Scald (RHYNSE) fungicidal activity; type: in vivo; conditions: Hordeum vulgare, 24 h, 1 Day Protectant, read-out: RHYNSE 1DP Disease Control at 100 ppm
Cercospora beticola = experiment: Leaf Spot of Sugar Beets (CERCBE) fungicidal activity; type: in vivo; conditions: topical, 24 h, 1 Day Protectant, sugar beet plants, read-out: CERCBE Disease Control 1DP
Phakopsora pachyrhizi = experiment: Asian Soybean Rust (PHAKPA) fungicidal activity; type: in vivo; conditions: topical, soybean plants
Protocol: Technical grades of materials were dissolved in acetone, which were then mixed with nine volumes of water containing 0.011% Tween 20. The fungicide solutions were applied onto soybean seedlings using an automated booth sprayer to run-off. All sprayed plants were allowed to air dry prior to further handling.
Soybean plants (variety Williams 82) were grown in soil-less Metro mix, with one plant per pot. Two weeks old seedlings were used for testing. Plants were inoculated either 3 days prior to or 1 day after fungicide treatments. Plants were incubated for 24 h in a dark dew room at 22° C. and 100% RH then transferred to a growth room at 23° C. for disease to develop. Disease severity was assessed on the sprayed leaves.

[3] = system: Magnaporthe grisea; Anamorph: Pyricularia oryzae; experiment: whole plant or invertebrate; type: in vivo; conditions: 24 h, read-out: PYRIOR 1DP Disease Control at 100 ppm
Leptosphaeria nodorum = experiment: Wheat Glume Blotch (LEPTNO) fungicidal activity; type: in vivo; conditions: Parastagonospora nodorum, 24 h, 1 Day Protectant, read-out: LEPTNO 1DP Disease Control at 100 ppm
Protocol: Technical grades of materials were dissolved in acetone, which were then mixed with nine volumes of water containing 110 ppm Triton X-100. The fungicide solutions were applied onto wheat seedlings using an automated booth sprayer to run-off. All sprayed plants were allowed to air dry prior to further handling. All fungicides were evaluated using the aforementioned method for their activity vs. all target diseases. Wheat leaf blotch and brown rust activity were also evaluated using track spray applications, in which case the fungicides were formulated as EC formulations, containing 0.1% Trycol 5941 in the spray solutions. Wheat plants (variety Yuma) were grown from seed in a greenhouse in 50% mineral soil/50% soil-less Metro mix until the first leaf was fully emerged, with 7-10 seedlings per pot. These plants were inoculated with an aqueous spore suspension of Septoria tritici either prior to or after fungicide treatments. […] When disease symptoms were fully expressed on the 1st leaves of untreated plants, infection levels were assessed on a scale of 0 to 100 percent disease severity. Percent disease control was calculated using the ratio of disease severity on treated plants relative to untreated plants. […]

[4] = system: Mycosphaerella graminicola; Anamorph: Septoria tritici; experiment: Leaf Blotch of Wheat (SEPTTR) fungicidal activity; type: in vivo; conditions: Zymoseptoria tritici; for pest or weed control at 100 ppm: rate 100 ppm (high volume application); for pest or weed control at 121.5 g/ha: rate 121.5 g/H (low volume application)
Protocol: as §1, with “plants.” for “plants. Wheat plants (variety Yuma) were grown from seed in a greenhouse in 50% mineral soil/50% soil-less Metro mix until the first leaf was fully emerged, with 7-10 seedlings per pot. These plants were inoculated with an aqueous spore suspension of Puccinia triticina either prior to or after fungicide treatments. After inoculation the plants were kept in a dark dew room at 22° C. with 100% relative humidity overnight to permit spores to germinate and infect the leaf. The plants were then transferred to a greenhouse set at 24° C. for disease to develop. Fungicide formulation, application and disease assessment followed the procedures as described in the Example A.”

Uncinula necator = experiment: Grape Powdery Mildew (UNCINE) fungicidal activity; type: in vivo; conditions: Erysiphe necator, 24 h, 1 Day Protectant, read-out: UNCINE 1DP Disease Control at 100 ppm
[5] = 24 h, 1 Day Protectant, read-out: PUCCRT 1DP disease control
[6] = 72 h, 3 Day Curative, read-out: PUCCRT 3DC disease control
[7] = 24 h, 1 Day Protectant, read-out: SEPTTR 1DP disease control
[8] = 72 h, 3 Day Curative, read-out: SEPTTR 3DC disease control

Row | SMILES | pest or weed control at 100 ppm (Puccinia triticina; [5]) | pest or weed control at 121.5 g/ha (Puccinia triticina; [5]) | pest or weed control at 100 ppm (Puccinia triticina; [6]) | pest or weed control at 121.5 g/ha (Puccinia triticina; [6]) | pest or weed control at 100 ppm [4, 7] | pest or weed control at 121.5 g/ha [4, 7] | pest or weed control at 100 ppm [4, 8] | pest or weed control at 121.5 g/ha [4, 8] | other results
1 | CO[C@@H]1[C@@H](CCC(C)C)CCC[C@H](N)C(=O)O[C@H]1C.Cl | – | – | – | – | – | – | – | – | melting point: 218 to 220 °C
2 | COc1ccnc(C(=O)N[C@H]2CCC[C@H](CCC(C)C)[C@@H](OC(=O)C3CCCC3)[C@H](C)OC2=O)c1OCOC(C)=O [F96] | 80 to 100% | 80 to 100% | 80 to 100% | 0 to 80% | 80 to 100% | 80 to 100% | 80 to 100% | 80 to 100% | pest or weed control at 100 ppm (Alternaria solani): 80 to 100%; pest or weed control at 100 ppm (Erysiphe cichoracearum): 80 to 100%; pest or weed control at 100 ppm (Venturia inaequalis): 0 to 80%; pest or weed control at 100 ppm [1]: 80 to 100%; pest or weed control at 100 ppm [2]: 0 to 80%; pest or weed control at 100 ppm (Rhyncosporium secalis): 80 to 100%; pest or weed control at 100 ppm (Cercospora beticola): 80 to 100%; pest or weed control at 25 ppm (Phakopsora pachyrhizi; 24 h, 1 Day Protectant, read-out: PHAKPA Disease Control 1DP): 80 to 100%; pest or weed control at 25 ppm (Phakopsora pachyrhizi; 72 h, 3 Day Curative, read-out: PHAKPA Disease Control 3DC): 0 to 80%; pest or weed control at 100 ppm [3]: 80 to 100%; pest or weed control at 100 ppm (Leptosphaeria nodorum): 80 to 100%; pest or weed control at 100 ppm (Uncinula necator): 80 to 100%
3 | COc1ccnc(C(=O)N[C@H]2CCC[C@H](Cc3ccc(F)cc3)[C@@H](OCC3CC3)[C@H](C)OC2=O)c1O [F10] | 80 to 100% | 80 to 100% | 80 to 100% | 0 to 80% | 80 to 100% | 80 to 100% | 80 to 100% | 80 to 100% | –
